Results as given in ChEMBL document CHEMBL6153170 (J Med Chem, 2025).
Values after ≈ are worked out from the molar mass of the structure shown. Active and inactive are the calls of the source. No cut-off for these calls is given here.

What was measured:
Jurkat [1] = assay: Upregulation of acetylated histone H3 protein level in human Jurkat T cells at 0.1 to 2 uM incubated for 12 hrs by Western blot analysis; format: functional, cell-based; conditions: dose 0.1-2 µM
B16-F10 [2] = assay: Upregulation of acetylated histone H3 protein level in mouse B16-F10 cells at 0.1 to 2 uM incubated for 12 hrs by Western blot analysis; format: functional, cell-based; conditions: dose 0.1-2 µM
B16-F10 [3] = assay: Antitumor activity against mouse B16-F10 cells implanted in C57BL/6 mouse model assessed as tumor growth inhibition at 20 mg/kg/day, ip administered for 14 days relative to control; format: functional; conditions: B16-F10, 336 h, time 14 day, read-out: TGI
[4] = In vivo inhibition of PD-L1 in C57BL/6 mouse model implanted with mouse B16-F10 cells assessed as reduction in PD-L1 protein expression in tumor at 20 mg/kg/day, ip administered for 14 days by Western blot analysis relative to control; format: functional; conditions: C57BL/6, B16-F10, 336 h, time 14 day
B16-F10 [5] = assay: Antitumor immunity activity against mouse B16-F10 cells implanted in C57BL/6 mouse model assessed as CD3+ CD4+ T cell percentage in tumor at 20 mg/kg/day, ip administered for 14 days by flow cytometric analysis (reference value: 0.095 %); format: functional; conditions: time 14 day
[6] = target: T1, Protein deacetylase HDAC6 (Mus musculus) (UniProt Q9Z2V5); assay: In vivo inhibition of HDAC6 in C57BL/6 mouse model implanted with mouse B16-F10 cells assessed as increase in acetylated alpha-tubulin protein level in tumor at 20 mg/kg/day, ip administered for 14 days by Western blot analysis; format: functional, organism-based; conditions: time 14.0 day
T1 sequence (whole entry): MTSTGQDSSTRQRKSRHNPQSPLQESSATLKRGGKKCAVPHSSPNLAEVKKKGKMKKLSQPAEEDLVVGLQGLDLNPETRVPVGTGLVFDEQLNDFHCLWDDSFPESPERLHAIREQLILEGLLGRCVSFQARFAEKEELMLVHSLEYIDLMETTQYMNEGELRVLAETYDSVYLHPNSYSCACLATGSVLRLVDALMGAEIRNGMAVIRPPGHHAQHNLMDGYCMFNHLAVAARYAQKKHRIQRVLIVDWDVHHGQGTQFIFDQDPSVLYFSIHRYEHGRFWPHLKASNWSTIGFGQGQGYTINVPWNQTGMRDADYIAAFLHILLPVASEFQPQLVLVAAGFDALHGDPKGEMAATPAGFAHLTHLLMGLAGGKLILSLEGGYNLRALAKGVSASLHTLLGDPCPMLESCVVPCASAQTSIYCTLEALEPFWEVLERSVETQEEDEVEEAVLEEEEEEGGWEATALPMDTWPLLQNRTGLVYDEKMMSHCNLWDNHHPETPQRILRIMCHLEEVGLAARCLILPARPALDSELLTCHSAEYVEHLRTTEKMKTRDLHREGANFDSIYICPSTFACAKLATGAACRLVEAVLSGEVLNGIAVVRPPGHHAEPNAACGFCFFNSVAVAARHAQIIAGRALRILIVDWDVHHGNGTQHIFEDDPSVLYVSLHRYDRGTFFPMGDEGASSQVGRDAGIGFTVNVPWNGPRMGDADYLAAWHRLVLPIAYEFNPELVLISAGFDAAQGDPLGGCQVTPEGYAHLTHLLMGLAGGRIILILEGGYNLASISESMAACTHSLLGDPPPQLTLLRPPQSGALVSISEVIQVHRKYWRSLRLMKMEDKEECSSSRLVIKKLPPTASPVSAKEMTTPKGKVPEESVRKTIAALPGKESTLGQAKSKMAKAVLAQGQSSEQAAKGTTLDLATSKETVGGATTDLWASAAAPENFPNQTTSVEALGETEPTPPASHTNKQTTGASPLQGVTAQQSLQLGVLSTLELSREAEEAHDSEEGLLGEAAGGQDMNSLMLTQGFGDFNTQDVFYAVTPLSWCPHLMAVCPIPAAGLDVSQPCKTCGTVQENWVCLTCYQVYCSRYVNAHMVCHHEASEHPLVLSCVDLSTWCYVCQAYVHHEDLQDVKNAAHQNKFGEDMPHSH

B16-F10 [7] = assay: Antitumor immunity activity against mouse B16-F10 cells implanted in C57BL/6 mouse model assessed as CD3+ CD8+ T cell percentage in tumor at 20 mg/kg/day, ip administered for 14 days by flow cytometric analysis (reference value: 0.52 %); format: functional; conditions: time 14 day
[8] = target: T1, Protein deacetylase HDAC6 (Mus musculus); assay: Inhibition of HDAC6 in mouse B16-F10 cells assessed as increase in acetylated alpha-tubulin level incubated for 12 hrs by Western blot analysis; format: cell-based; conditions: dose 0.1-2 µM
Jurkat [9] = assay: Effect on HDAC6 protein level in human Jurkat T cells at 0.1 to 2 uM incubated for 12 hrs by Western blot analysis; format: functional, cell-based; conditions: dose 0.1-2 µM
B16-F10 [10] = assay: Effect on HDAC6 protein level in mouse B16-F10 cells at 0.1 to 2 uM incubated for 12 hrs by Western blot analysis; format: functional, cell-based; conditions: dose 0.1-2 µM
B16-F10 [11] = assay: Downregulation of p-STAT3 expression level in mouse B16-F10 cells at 0.1 to 2 uM incubated for 24 hrs by Western blot analysis; format: functional, cell-based; conditions: dose 0.1-2 µM
B16-F10 [12] = assay: Downregulation of PD-L1 expression level in mouse B16-F10 cells at 0.1 to 2 uM incubated for 24 hrs by Western blot analysis; format: functional, cell-based; conditions: dose 0.1-2 µM
B16-F10 [13] = assay: Effect on STAT3 expression level in mouse B16-F10 cells at 0.1 to 2 uM incubated for 24 hrs by Western blot analysis; format: functional, cell-based; conditions: dose 0.1-2 µM
B16-F10 [14] = assay: cells; conditions: Mus musculus, B16-F10, 48 h
HepG2 = assay: cells; conditions: Homo sapiens, HepG2, 48 h
MCF7 = assay: cells; conditions: Homo sapiens, MCF7, 48 h
Jurkat [15] = assay: cells; conditions: Homo sapiens, 72 h
[16] = target: Programmed cell death protein 1/Programmed cell death 1 ligand 1 (Homo sapiens, UniProt Q9NZQ7); assay: Inhibition of PD-1/PD-L1 (unknown origin) protein-protein interaction by HTRF assay; format: protein-complex assay
Chain of Programmed cell death protein 1/Programmed cell death 1 ligand 1 (Q15116 whole entry, the tested form may be a part): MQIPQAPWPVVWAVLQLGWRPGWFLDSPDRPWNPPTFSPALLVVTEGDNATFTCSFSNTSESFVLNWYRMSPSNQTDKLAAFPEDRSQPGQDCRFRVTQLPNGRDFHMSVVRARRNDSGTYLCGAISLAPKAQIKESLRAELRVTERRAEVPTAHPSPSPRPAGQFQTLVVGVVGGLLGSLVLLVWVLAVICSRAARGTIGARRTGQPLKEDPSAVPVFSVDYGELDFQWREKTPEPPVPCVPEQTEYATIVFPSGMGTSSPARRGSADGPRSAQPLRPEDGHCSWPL
Chain of Programmed cell death protein 1/Programmed cell death 1 ligand 1 (Q9NZQ7 whole entry, the tested form may be a part): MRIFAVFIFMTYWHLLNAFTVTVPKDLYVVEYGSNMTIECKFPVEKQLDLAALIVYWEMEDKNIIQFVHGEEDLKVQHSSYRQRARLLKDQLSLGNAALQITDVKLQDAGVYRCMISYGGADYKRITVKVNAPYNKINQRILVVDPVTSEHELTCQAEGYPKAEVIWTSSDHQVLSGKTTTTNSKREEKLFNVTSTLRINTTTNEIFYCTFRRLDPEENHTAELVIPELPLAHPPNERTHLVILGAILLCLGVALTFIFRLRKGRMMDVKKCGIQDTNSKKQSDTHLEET

Histone deacetylase 1 = Histone deacetylase 1 (Homo sapiens, UniProt Q13547); assay: Inhibition of recombinant full-length human HDAC1 (1 to 482 residues) extracted from baculovirus expression system using Ac-Leu-Gly-Lys (Ac)-AMC as substrate preincubated for 5 mins followed by substrate addition and measured after 30 mins by fluorescence microplate reader analysis
Chain of Histone deacetylase 1 (Q13547 whole entry, the tested form may be a part): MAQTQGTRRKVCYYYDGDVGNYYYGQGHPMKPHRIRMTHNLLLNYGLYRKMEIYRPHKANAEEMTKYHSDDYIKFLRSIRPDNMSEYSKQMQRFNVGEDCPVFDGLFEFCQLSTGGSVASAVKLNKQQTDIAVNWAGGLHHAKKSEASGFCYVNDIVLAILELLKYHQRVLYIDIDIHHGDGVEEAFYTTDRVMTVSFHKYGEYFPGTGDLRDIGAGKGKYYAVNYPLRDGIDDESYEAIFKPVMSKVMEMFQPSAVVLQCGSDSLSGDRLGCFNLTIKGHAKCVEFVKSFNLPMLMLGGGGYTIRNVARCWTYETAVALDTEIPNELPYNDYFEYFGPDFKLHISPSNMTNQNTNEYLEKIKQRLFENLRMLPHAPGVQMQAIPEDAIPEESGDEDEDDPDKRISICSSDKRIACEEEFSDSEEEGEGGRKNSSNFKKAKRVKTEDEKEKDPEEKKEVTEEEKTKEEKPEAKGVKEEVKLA

Histone deacetylase 7 = target: T2, Histone deacetylase 7 (Homo sapiens, UniProt Q8WUI4); assay: Inhibition of N-terminal GST-tagged recombinant human HDAC7 (501 to 952 residues) extracted from baculovirus expression system using Ac-Leu-Gly-Lys (Tfa)-AMC as substrate preincubated for 5 mins followed by substrate addition and measured after 30 mins by fluorescence microplate reader analysis
T2 sequence (Q8WUI4 whole entry): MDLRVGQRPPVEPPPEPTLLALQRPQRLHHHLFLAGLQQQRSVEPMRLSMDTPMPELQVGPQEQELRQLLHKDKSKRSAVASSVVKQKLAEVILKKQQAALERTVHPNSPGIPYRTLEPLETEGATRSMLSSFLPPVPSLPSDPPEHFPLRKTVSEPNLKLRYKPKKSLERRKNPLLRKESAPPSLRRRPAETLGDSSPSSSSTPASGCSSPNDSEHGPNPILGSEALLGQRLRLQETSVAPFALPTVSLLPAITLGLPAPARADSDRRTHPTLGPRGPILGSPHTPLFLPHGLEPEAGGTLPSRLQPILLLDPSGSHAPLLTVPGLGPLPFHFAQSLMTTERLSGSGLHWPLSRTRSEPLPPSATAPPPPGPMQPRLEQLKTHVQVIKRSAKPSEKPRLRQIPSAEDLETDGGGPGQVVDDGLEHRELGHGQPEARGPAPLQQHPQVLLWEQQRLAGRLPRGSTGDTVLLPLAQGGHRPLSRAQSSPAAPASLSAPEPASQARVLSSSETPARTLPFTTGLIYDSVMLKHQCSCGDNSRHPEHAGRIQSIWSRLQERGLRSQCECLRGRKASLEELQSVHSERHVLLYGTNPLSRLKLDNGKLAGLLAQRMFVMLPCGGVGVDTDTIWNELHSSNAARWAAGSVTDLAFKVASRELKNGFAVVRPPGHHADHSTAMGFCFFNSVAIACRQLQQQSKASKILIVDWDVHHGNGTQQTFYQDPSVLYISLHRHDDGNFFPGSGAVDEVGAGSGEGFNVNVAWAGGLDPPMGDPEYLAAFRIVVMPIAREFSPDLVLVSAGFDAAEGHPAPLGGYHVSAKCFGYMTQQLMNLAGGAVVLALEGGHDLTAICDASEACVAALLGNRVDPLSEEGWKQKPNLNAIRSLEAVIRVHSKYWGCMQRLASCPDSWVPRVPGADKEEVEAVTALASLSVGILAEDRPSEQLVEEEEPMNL

Histone deacetylase 8 = target: T3, Histone deacetylase 8 (Homo sapiens, UniProt Q9BY41); assay: Inhibition of C-terminal His-tagged recombinant full length human HDAC8 extracted from baculovirus infected Sf9 insect cells preincubated for 5 mins followed by substrate addition and measured after 30 mins by fluorescence microplate reader analysis
T3 sequence (Q9BY41 whole entry): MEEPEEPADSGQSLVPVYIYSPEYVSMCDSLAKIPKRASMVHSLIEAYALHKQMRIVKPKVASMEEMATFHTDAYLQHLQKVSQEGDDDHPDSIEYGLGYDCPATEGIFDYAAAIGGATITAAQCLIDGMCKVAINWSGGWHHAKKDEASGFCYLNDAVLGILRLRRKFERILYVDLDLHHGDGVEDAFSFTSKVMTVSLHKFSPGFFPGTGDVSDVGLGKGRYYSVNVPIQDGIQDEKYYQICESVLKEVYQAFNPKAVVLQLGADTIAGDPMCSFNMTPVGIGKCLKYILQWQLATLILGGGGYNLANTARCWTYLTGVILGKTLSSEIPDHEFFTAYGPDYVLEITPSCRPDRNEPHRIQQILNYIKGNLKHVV

[17] = Aqueous solubility of compound incubated for 24 hrs by miniaturized shake flask based HPLC analysis; format: physicochemical; conditions: buffer

inhibition [6] | IC50 (B16-F10 [14]) [µM] | IC50 (HepG2) [µM] | IC50 (MCF7) [µM] | IC50 (Jurkat [15]) [µM] | IC50 (Histone deacetylase 7) [µM] | IC50 (Histone deacetylase 8) [µM] | SMILES | inhibition in vivo at 20 mg/kg/day (B16-F10 [3]) [%] | inhibition in vivo at 20 mg/kg/day [4] [%] | Activity (B16-F10 [5]) [%] | Activity (B16-F10 [7]) [%] | IC50 [16] [µM] | other results
– | – | – | – | – | – | – | O=C(CCCCCCC(=O)Nc1ccccc1)NO | – | – | – | – | – | Activity (Jurkat [1]): Active; Activity (B16-F10 [2]): Active
inactive | – | – | – | – | – | – | Cc1c(COc2cc(OCc3cccc(C#N)c3)c(CNC(C)(C)C(=O)O)cc2Cl)cccc1-c1ccccc1 | 43.2 | ~50 | 3.41 | 4.99 | – | –
Active | > 10 | 7.9 | 8.3 | 6.7 | – | – | O=C(CCCCCCNC(=O)c1cnc(N(c2ccccc2)c2ccccc2)nc1)NO [RICOLINOSTAT] | 45.6 | ~30 | 2.62 | 1.04 | – | inhibition [8]: Dose-dependent-effect; Activity (Jurkat [9]): inactive; Activity (B16-F10 [10]): inactive; Activity (B16-F10 [11]): Active; Activity (B16-F10 [12]): Active; Activity (B16-F10 [13]): inactive
– | > 10 | 9.7 | > 10 | > 10 | > 100 | > 10 | COc1nc(OCc2cccc(-c3ccccc3)c2C)ccc1CNCCCCC(=O)NO | – | – | – | – | 0.1 | IC50 (Histone deacetylase 1): > 10 µM
– | – | – | – | – | – | – | COc1nc(OCc2cccc(-c3ccccc3)c2C)ccc1CNCCNC(C)=O | – | – | – | – | – | solubility thermodynamic at 24 h [17]: 38.3 µg/mL (≈ 91.3 µM)
– | > 10 | 9.7 | > 10 | > 10 | > 100 | > 10 | COc1nc(-c2cccc(-c3ccccc3)c2C)ccc1CNCCCCC(=O)NO | – | – | – | – | 0.0792 | –
